Literature values as cited in PubChem BioAssay AID1259409 (Chemical Carcinogenesis Research Information System (CCRIS), 2018).

Test system: rodent chemically induced tumor inhibition, incidence and multiplicity
Assay: CCRIS tumor inhibitor studies
Conditions: Dose [Inhibitor]: 0, Route [Inhibitor]: ORAL, Promoter: NONE USED

## CC(C)=CCC/C(C)=C/C=C/C(C)=C/C=C/C(C)=C/C=C/C=C(C)/C=C/C=C(C)/C=C/C=C(\C)CCC=C(C)C
Carcinogen: DIETHYLNITROSAMINE, 55-18-5, N-METHYL-N-NITROSOUREA, 684-93-5, 1,2-DIMETHYLHYDRAZINE, 306-37-6, Carcinogen: DIETHYLNITROSAMINE, 55-18-5, N-METHYL-N-NITROSOUREA, 684-93-5, 1,2-DIMETHYLHYDRAZINE, 306-37-6, 25 PPM IN DRINKING WATER FOR 21 WK BEGINNING 2 WK POST CARCINOGEN TREATMENT (STUDY DURATION: 32 WK), Species: MOUSE, Strain/Sex: B6C3F1/MALE, Target Tissue: Type of Lesion: LUNG: ADENOMA, Dose [Carcinogen]: 10 MG/KG BW DEN ON DAYS 11 AND 32 OF AGE, 120 PPM MNU IN DRINKING WATER FROM WKS 4 TO 9, 20 MG/KG BW DMH 2/WK FOR 5 WK
  tumour outcome (control, treated, inhibition, significance): 11/16 (69%), 11/16 (69%), 0%, not significant
Carcinogen: DIETHYLNITROSAMINE, 55-18-5, N-METHYL-N-NITROSOUREA, 684-93-5, 1,2-DIMETHYLHYDRAZINE, 306-37-6, Carcinogen: DIETHYLNITROSAMINE, 55-18-5, N-METHYL-N-NITROSOUREA, 684-93-5, 1,2-DIMETHYLHYDRAZINE, 306-37-6, 25 PPM IN DRINKING WATER FOR 21 WK BEGINNING 2 WK POST CARCINOGEN TREATMENT (STUDY DURATION: 32 WK), Species: MOUSE, Strain/Sex: B6C3F1/MALE, Target Tissue: Type of Lesion: LUNG: CARCINOMA, Dose [Carcinogen]: 10 MG/KG BW DEN ON DAYS 11 AND 32 OF AGE, 120 PPM MNU IN DRINKING WATER FROM WKS 4 TO 9, 20 MG/KG BW DMH 2/WK FOR 5 WK
  tumour outcome (control, treated, inhibition, significance): 1/16 (6%), 2/16 (13%), -116%, not significant
Carcinogen: DIETHYLNITROSAMINE, 55-18-5, N-METHYL-N-NITROSOUREA, 684-93-5, 1,2-DIMETHYLHYDRAZINE, 306-37-6, Carcinogen: DIETHYLNITROSAMINE, 55-18-5, N-METHYL-N-NITROSOUREA, 684-93-5, 1,2-DIMETHYLHYDRAZINE, 306-37-6, 50 PPM IN DRINKING WATER FOR 21 WK BEGINNING 2 WK POST CARCINOGEN TREATMENT (STUDY DURATION: 32 WK), Species: MOUSE, Strain/Sex: B6C3F1/FEMALE, Target Tissue: Type of Lesion: LUNG: ADENOMA, Dose [Carcinogen]: 10 MG/KG BW DEN ON DAYS 11 AND 32 OF AGE, 120 PPM MNU IN DRINKING WATER FROM WKS 4 TO 9, 20 MG/KG BW DMH 2/WK FOR 5 WK
  tumour outcome (control, treated, inhibition, significance): 6/16 (38%), 8/15 (53%), -39%, not significant
Carcinogen: DIETHYLNITROSAMINE, 55-18-5, N-METHYL-N-NITROSOUREA, 684-93-5, 1,2-DIMETHYLHYDRAZINE, 306-37-6, Carcinogen: DIETHYLNITROSAMINE, 55-18-5, N-METHYL-N-NITROSOUREA, 684-93-5, 1,2-DIMETHYLHYDRAZINE, 306-37-6, 50 PPM IN DRINKING WATER FOR 21 WK BEGINNING 2 WK POST CARCINOGEN TREATMENT (STUDY DURATION: 32 WK), Species: MOUSE, Strain/Sex: B6C3F1/MALE, Target Tissue: Type of Lesion: LUNG: ADENOMA, Dose [Carcinogen]: 10 MG/KG BW DEN ON DAYS 11 AND 32 OF AGE, 120 PPM MNU IN DRINKING WATER FROM WKS 4 TO 9, 20 MG/KG BW DMH 2/WK FOR 5 WK
  tumour outcome (control, treated, inhibition, significance): 11/16 (69%), 3/16 (19%), 72%, p<0.02
Carcinogen: DIETHYLNITROSAMINE, 55-18-5, N-METHYL-N-NITROSOUREA, 684-93-5, 1,2-DIMETHYLHYDRAZINE, 306-37-6, Carcinogen: DIETHYLNITROSAMINE, 55-18-5, N-METHYL-N-NITROSOUREA, 684-93-5, 1,2-DIMETHYLHYDRAZINE, 306-37-6, 50 PPM IN DRINKING WATER FOR 21 WK BEGINNING 2 WK POST CARCINOGEN TREATMENT (STUDY DURATION: 32 WK), Species: MOUSE, Strain/Sex: B6C3F1/MALE, Target Tissue: Type of Lesion: LUNG: CARCINOMA, Dose [Carcinogen]: 10 MG/KG BW DEN ON DAYS 11 AND 32 OF AGE, 120 PPM MNU IN DRINKING WATER FROM WKS 4 TO 9, 20 MG/KG BW DMH 2/WK FOR 5 WK
  tumour outcome (control, treated, inhibition, significance): 1/16 (6%), 0/16 (0%), 100%, not significant
Carcinogen: N-BUTYL-N-(4-HYDROXYBUTYL)NITROSAMINE, 3817-11-6, 0.0025% IN DRINKING WATER FOR 12 WK BEGINNING POST CARCINOGEN TREATMENT (STUDY DURATION: 20 WK), Species: RAT, Strain/Sex: F344/MALE, Target Tissue: Type of Lesion: URINARY BLADDER: TRANSITIONAL CELL CARCINOMA, Dose [Carcinogen]: 0.05% IN DRINKING WATER FOR 8 WK
  tumour outcome (control, treated, inhibition, significance): 10/12 (83%), 10/12 (83%), 0%, not significant
Carcinogen: N-METHYLNITROSAUREA, 684-93-5, 17 PPM IN TOMATO JUICE AND WATER (1:2) AS DRINKING FLUID FOR DURATION OF STUDY (STUDY DURATION: 35 WK), Species: RAT, Strain/Sex: F344/FEMALE, Target Tissue: Type of Lesion: COLON: TUMOR, Dose [Carcinogen]: 0.4% (0.5 ML) AQUEOUS SOLUTION 3/WK FOR 3 WK
  tumour outcome (control, treated, inhibition, significance): 13/24 (54%), 5/24 (21%), 61%, p<0.02
Carcinogen: N-METHYLNITROSOUREA, 684-93-5, 3.4 PPM IN TOMATO JUICE AND WATER (1:14) AS DRINKING FLUID FOR DURATION OF STUDY (STUDY DURATION: 35 WK), Species: RAT, Strain/Sex: F344/FEMALE, Target Tissue: Type of Lesion: COLON: TUMOR, Dose [Carcinogen]: 0.8% (0.5 ML) AQUEOUS SOLUTION 3/WK FOR 3 WKS
  tumour outcome (control, treated, inhibition, significance): 21/25 (84%), 18/25 (72%), 14%, not significant
Carcinogen: N-METHYLNITROSOUREA, 684-93-5, 17 PPM IN DRINKING WATER FOR DURATION OF STUDY (STUDY DURATION: 35 WK), Species: RAT, Strain/Sex: F344/FEMALE, Target Tissue: Type of Lesion: COLON: TUMOR, Dose [Carcinogen]: 0.4% (0.5 ML) AQUEOUS SOLUTION 3/WK FOR 3 WK
  tumour outcome (control, treated, inhibition, significance): 13/24 (54%), 8/24 (33%), 39%, not significant
Carcinogen: N-METHYLNITROSOUREA, 684-93-5, 17 PPM IN TOMATO JUICE AND WATER (1:2) AS DRINKING FLUID FOR DURATION OF STUDY (STUDY DURATION: 35 WK), Species: RAT, Strain/Sex: F344/FEMALE, Target Tissue: Type of Lesion: COLON: TUMOR, Dose [Carcinogen]: 0.8% (0.5 ML) AQUEOUS SOLUTION 3/WK FOR 3 WK
  tumour outcome (control, treated, inhibition, significance): 21/25 (84%), 10/25 (40%), 52%, p<0.01
